In patent publication US20120301402A1, “RAP1A AS A MARKER FOR CARDIAC ARRHYTHMIA” (NATIONWIDE CHILDREN'S HOSPITAL, INC., priority 2011, published 2012):

Assays:
[1] = test system: isolated Rap1A-heterozygous cardiac myocytes; details: combination with isoproterenol, waves resumed after washout
Description: Ventricular myocytes were isolated from male C57BL/6 control wild-type (WT) and Rap1A-heterozygous (Rap1a^+/−) mice. Whole hearts were cannulated and hung on a Langendorff apparatus and tissue treated for enzymatic digestion for 3-5 minutes. The ventricles were minced and myocytes were dissociated by trituration. Subsequently, the myocytes were filtered, centrifuged, and used for the studies within 6 hours of isolation. Calcium transients were measured by loading isolated myocytes with fluo 4-AM (10 μM) for 30 min, followed by an additional 30 min for intracellular deesterification. Cell fluorescence was measured by epifluorescence. The intracellular calcium concentration [Ca^2+]i of single cells was measured with excitation at 480±20 nm and emission at 535±25 nm. Data were expressed as ΔF/F0, where F is the fluorescence intensity, and F0 is the intensity at rest. Myocytes were stimulated at 1 Hz. Simultaneous measurement of shortening was also performed using edge detection. Data were expressed as cell shortening (μm). Myocytes were analyzed from 2-3 independent isolations per group.
Myocytes were analyzed from 2-3 independent isolations per group.

[2] = test system: isolated ventricular myocytes; experiment: After-contractions protocol in isolated ventricular myocytes; format: cell-based, mice; details: 5 s stimulation, counted 40 s after stimulation withdrawn
Description: FIG. 10 provides graphs showing that aftercontractions increase in heterozygous Rap1A myocytes. Further investigation of the spontaneous waves was performed using an “after-contractions” protocol by stimulating for 5 seconds and counting the number of after-contractions that occur 40 seconds after the stimulation is withdrawn. (A) Rap1A-heterozygous myocytes have increased after-contractions compared to control wild-type (WT) myocytes. (B) Inhibition of protein kinase C (PKC) by bisindolylmaleimide I (BIM, 1 μM) increases after-contractions in control wild-type (WT) and Rap1A-heterozygous myocytes. (C) Protein kinase C (PKC) activation by phorbol myristate acetate (PMA, 150 nM) leads to a decrease in after-contractions in Rap1A-heterozygous myocytes. (D) Summary data of WT/Rap1A-heterozygous+/− BIM (Inhibitor) and PMA (Activator). Both drugs were incubated in isolated ventricular myocytes before measurements were taken to activate or inhibit PKC.

SMILES: Cc1cccc(C)c1OCC(C)N (stereo not shown) [Mexiletine]
- After-transients / spontaneous calcium waves [1]: rescued

SMILES: CCCCCCCCCCCCCC(=O)O[C@@H]1[C@@H](C)[C@@]2(O)[C@@H](C=C(CO)C[C@]3(O)C(=O)C(C)=C[C@@H]23)[C@@H]2C(C)(C)[C@]12OC(C)=O [phorbol myristate acetate]
- After-contractions ([2]; Rap1A-heterozygous myocytes, 150 nM): decrease

SMILES: CN(C)CCCn1cc(C2=C(c3c[nH]c4ccccc34)C(=O)NC2=O)c2ccccc21 [bisindolylmaleimide I]
- After-contractions ([2]; Rap1A-heterozygous myocytes, 1 μM): increases
- After-contractions ([2]; control wild-type (WT) myocytes, 1 μM): increases
